What was measured:
[1] = test system: enzalutamide-resistant LNCaP-AR and CWR-R1 cells; experiment: long-term survival assay in enzalutamide-resistant cell lines; format: cell-based, human; settings: LNCaP-AR and CWR-R1, long-term survival two weeks
Method: FIG. 1: ESK981 inhibits the growth of diverse preclinical models of prostate cancer and is associated with a unique vacuolization morphology. • (a) The percentage viabilities of DU145 cells treated with 300 nM ESK981 or 167 other tyrosine kinase inhibitors when compared to a vehicle control. The top five most inhibitory compounds, as well as cabozantinib and crizotinib (highlighted in orange), and their respective targets are listed in the table. […] Long-term survival (two weeks) was assayed by absorbance of crystal violet at OD590. • (e) VCaP-RFP cells were cultured for three days in ultralow attachment plates to form 3D tumor spheroids prior to the indicated drug treatments. […] Fluorescence intensity of 3D spheroids was measured by IncuCyte ZOOM. • (f) Castration-resistant VCaP tumors were established subcutaneously in castrated SCID mice, and mice were randomized into three groups, which received vehicle, 30 mg/kg, or 60 mg/kg ESK981 by oral gavage once per day for the indicated dosing schedule. Tumor volumes were monitored by a digital caliper twice per week. Data were analyzed by unpaired t test and presented as mean±SEM. *p<0.05; **p<0.01. • (g) AR^+ prostate patient-derived xenograft (PDX) MDA-PCa-146-12 were implanted subcutaneously in non-castrated SCID mice, and mice were randomized into two groups receiving either once daily vehicle or 30 mg/kg ESK981 for five days each week. […]

Tie-2 (TEK) = Tie-2 (TEK) (Homo sapiens, UniProt Q02763); settings: cited from earlier work
Tie-2 (TEK), sequence (Q02763 23-1124, species assumed): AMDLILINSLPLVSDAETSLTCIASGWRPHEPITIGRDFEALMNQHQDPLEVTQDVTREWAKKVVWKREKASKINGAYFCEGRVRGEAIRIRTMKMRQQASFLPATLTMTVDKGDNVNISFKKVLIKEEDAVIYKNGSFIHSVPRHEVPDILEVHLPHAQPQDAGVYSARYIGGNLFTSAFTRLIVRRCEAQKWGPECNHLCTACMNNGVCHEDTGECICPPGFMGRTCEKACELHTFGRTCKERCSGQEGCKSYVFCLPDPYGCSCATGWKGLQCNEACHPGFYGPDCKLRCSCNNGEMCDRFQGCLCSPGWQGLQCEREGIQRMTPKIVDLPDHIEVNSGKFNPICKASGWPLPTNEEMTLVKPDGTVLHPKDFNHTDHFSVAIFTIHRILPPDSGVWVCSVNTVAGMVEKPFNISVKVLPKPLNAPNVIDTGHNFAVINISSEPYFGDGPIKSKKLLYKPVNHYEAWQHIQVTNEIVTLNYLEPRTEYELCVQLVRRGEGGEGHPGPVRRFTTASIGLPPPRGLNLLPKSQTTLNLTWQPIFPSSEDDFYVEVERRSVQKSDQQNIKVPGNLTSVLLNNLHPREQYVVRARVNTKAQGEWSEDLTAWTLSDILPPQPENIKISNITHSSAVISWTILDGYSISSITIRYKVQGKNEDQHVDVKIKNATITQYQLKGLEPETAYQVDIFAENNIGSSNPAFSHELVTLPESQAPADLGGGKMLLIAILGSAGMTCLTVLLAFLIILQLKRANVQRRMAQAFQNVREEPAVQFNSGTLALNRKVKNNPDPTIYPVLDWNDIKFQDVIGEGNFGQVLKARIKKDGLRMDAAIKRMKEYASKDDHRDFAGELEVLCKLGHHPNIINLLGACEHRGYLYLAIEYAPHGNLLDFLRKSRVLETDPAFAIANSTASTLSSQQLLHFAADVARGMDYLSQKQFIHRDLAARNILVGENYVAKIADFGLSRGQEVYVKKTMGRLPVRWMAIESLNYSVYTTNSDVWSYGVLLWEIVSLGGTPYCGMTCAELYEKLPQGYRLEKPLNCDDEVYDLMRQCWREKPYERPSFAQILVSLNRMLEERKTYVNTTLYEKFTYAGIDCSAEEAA

Atg8 = experiment: yeast autophagy detection (Atg8 immunoblot); format: cell-based; settings: drug permeable yeast strain (prd5Δ), 3 μM, nitrogen deprivation
Method: The yeast strains used in this study were YAB499 (SEY6210, pho13Δ pho8Δ60, pdr5Δ::Kan). Protein extraction and immunoblot were performed as previously described^59. Antisera to Atg8 and Pgk1 (a generous gift from Dr. Jeremy Thorner, University of California, Berkeley) were used as previously described. Cells were treated with either 3 μM ESK981, 3 μM cabozantinib, or the equivalent amount of DMSO as control for the indicated times.

[2] = test system: DU145 prostate cancer cells; experiment: cell viability screen with a 167-compound tyrosine kinase inhibitor library; format: cell-based, human
Method: FIG. 1: ESK981 inhibits the growth of diverse preclinical models of prostate cancer and is associated with a unique vacuolization morphology. • (a) The percentage viabilities of DU145 cells treated with 300 nM ESK981 or 167 other tyrosine kinase inhibitors when compared to a vehicle control. The top five most inhibitory compounds, as well as cabozantinib and crizotinib (highlighted in orange), and their respective targets are listed in the table. ESK981 is highlighted in red. • (b) Morphological differences of nuclear-restricted RFP-expressing DU145 cells treated with 300 nM ESK981, crizotinib, or cabozantinib. • (c) A long-term survival assay was used to calculate the half-maximum inhibitory concentration (IC50) after two weeks of incubation with the serial dilutions of indicated drugs. (Top) Long-term survival assays of VCaP prostate cancer cells exposed to MTKIs. (Bottom) IC50 of ESK981, crizotinib, and cabozantinib in a panel of prostate cancer cell lines. • (d) ESK981 was effective against enzalutamide (Enza)-resistant cell lines. […] Long-term survival (two weeks) was assayed by absorbance of crystal violet at OD590. • (e) VCaP-RFP cells were cultured for three days in ultralow attachment plates to form 3D tumor spheroids prior to the indicated drug treatments. […] Fluorescence intensity of 3D spheroids was measured by IncuCyte ZOOM. • (f) Castration-resistant VCaP tumors were established subcutaneously in castrated SCID mice, and mice were randomized into three groups, which received vehicle, 30 mg/kg, or 60 mg/kg ESK981 by oral gavage once per day for the indicated dosing schedule. Tumor volumes were monitored by a digital caliper twice per week. Data were analyzed by unpaired t test and presented as mean±SEM. *p<0.05; **p<0.01. • (g) AR^+ prostate patient-derived xenograft (PDX) MDA-PCa-146-12 were implanted subcutaneously in non-castrated SCID mice, and mice were randomized into two groups receiving either once daily vehicle or 30 mg/kg ESK981 for five days each week. […] Tumor volumes were monitored twice per week. […]

[3] = test system: advanced, relapsed, or refractory solid tumors; settings: cited from earlier work
VCaP 3D spheroids = experiment: 3D spheroid culture; format: cell-based, human; settings: VCaP 3D spheroid culture, compared with cabozantinib
Method: Nuclear red fluorescent protein-expressing VCaP cells were seeded in ultralow attachment 96-well plates and spun down at 1000 rpm for 10 minutes to pellet cells. Spheroids were formed after 3 days of incubation in a cell culture incubator, and then treatment was started. Red fluorescence intensity was monitored by IncuCyte ZOOM.

## CC(C)Cn1c2ccc(Nc3ncccn3)cc2c2c3c(c4c(c21)CCc1nn(C)cc1-4)C(=O)NC3 [ESK981, 13-isobutyl-4-methyl-10-(pyrimidin-2-ylamino)-1,2,4,7,8,13-hexahydro-6H-indazolo[5,4-a]pyrrolo[3,4-c]carbazol-6-one]
[1]
  efficacy in enzalutamide-resistant cell lines: remained efficacious
Tie-2 (TEK)
  activity against kinase: potent activity
Atg8
  lipidated Atg8: increase in lipidated Atg8
[2]; 300 nM
  growth inhibition (cell viability): potent growth inhibition
[2]; among the 167 compounds tested
  cytoplasmic vacuolization morphology: uniquely triggered a cytoplasmic vacuolization morphology
[3]; measured at ≥6 weeks of ESK981 treatment
  evaluable patients achieving stable disease: 51%
[3]; patients with advanced, relapsed, or refractory solid tumors
  safety, pharmacokinetic and pharmacodynamic profiles: favorable safety, pharmacokinetic, and pharmacodynamic profiles
VCaP 3D spheroids
  inhibitory effect on 3D spheroids: more robust inhibitory effect at relatively lower concentrations than cabozantinib

From patent US20230364084A1, “METHODS FOR PREVENTING OR TREATING CONDITIONS RELATED TO PIKFYVE ACTIVITY” (The Regents of the University of Michigan, priority 2020, published 2023)
